The values below come from the supplement of paper PMC10307832.

Test in all cases: relative viability (nuclei count vs DMSO), 5 days (fraction); higher = more cells survive
Compound in experiment [1]: COc1cc2ncn(-c3cc(OCc4ccccc4C(F)(F)F)c(C(N)=O)s3)c2cc1OC + CC1(C)CCC(c2ccc(Cl)cc2)=C(CN2CCN(c3ccc(C(=O)NS(=O)(=O)c4ccc(N[C@H](CCN5CCOCC5)CSc5ccccc5)c(S(=O)(=O)C(F)(F)F)c4)cc3)CC2)C1 [Navitoclax] (partner 0.5 µM)
The procedure, abridged: (§1)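 Cells from lung cancer lines were seeded into 1536-well plates and, one day later, dosed by pin tool. Treatments were either a single drug or a fixed dose of an anchor drug with five library-drug doses (not always all listed) in √10 steps. After 5 days, nuclei were stained in a one-step fixation (final 0.05% Triton X-100, 1% formaldehyde, 1 ug/ml Hoechst) and counted on 4× images, and relative viability is the treated-to-vehicle nuclei ratio, as the median of duplicate plates.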

Compound in experiment [2]: COc1cc2ncn(-c3cc(OCc4ccccc4C(F)(F)F)c(C(N)=O)s3)c2cc1OC + Cc1cc(Nc2cc(N3CCN(C)CC3)nc(Sc3ccc(NC(=O)C4CC4)cc3)n2)n[nH]1 [Tozasertib] (partner 0.1 µM)
The procedure, abridged: as §1

Compound in experiment [3]: COc1cc2ncn(-c3cc(OCc4ccccc4C(F)(F)F)c(C(N)=O)s3)c2cc1OC + N=C(N)NC(=N)NCCc1ccccc1 [Phenformin] (partner 250 µM)
The method in brief:
as §1

Compound in experiment [4]: COc1cc2ncn(-c3cc(OCc4ccccc4C(F)(F)F)c(C(N)=O)s3)c2cc1OC
The method in brief: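 MetaXpress counted nuclei in 4× images of lung cancer cell lines that had been fixed, permeabilised and Hoechst-stained in one step. Before that, cells in 1536-well plates were kept overnight at 37 °C, pinned with five √10-spaced library-drug doses on vehicle-anchored plates, and cultured 5 days without medium change. Viability takes treated-well nuclei over vehicle-well nuclei and uses the median across plates. Plates were accepted only at control CV below 25% and at least one doubling.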

On to PC-14, for which the relative viability in experiment [1] (first compound 0.05 µM) is 1.03; in experiment [1] (first compound 0.1581 µM) it was 0.97; in experiment [1] (first compound 0.5 µM) it was 0.407; in experiment [1] (first compound 1.581 µM), 0.151; in experiment [1] (first compound 5 µM), 0.273; in experiment [2] (first compound 0.05 µM), 0.649. In addition, the relative viability in experiment [2] (first compound 0.1581 µM) is 0.715; in experiment [2] (first compound 0.5 µM), 0.525; in experiment [2] (first compound 1.581 µM) it was 0.163; in experiment [2] (first compound 5 µM) it was 0.354; in experiment [3] (first compound 0.05 µM), 0.501; in experiment [3] (first compound 0.1581 µM) it was 0.561. For the same cell line, the relative viability in experiment [3] (first compound 0.5 µM) amounted to 0.465; in experiment [3] (first compound 1.581 µM), 0.119; in experiment [3] (first compound 5 µM) it was 0.0948; in experiment [4] (0.05 µM), 0.988; in experiment [4] (0.1581 µM) it was 0.923; in experiment [4] (0.5 µM), 0.661. In addition, the relative viability amounted to 0.141 in experiment [4] (1.581 µM) and 0.0894 in experiment [4] (5 µM).
Regarding RERF-LC-KJ, the relative viability in experiment [1] (first compound 0.05 µM) is 0.993; in experiment [1] (first compound 0.1581 µM), 0.874; in experiment [1] (first compound 0.5 µM), 0.416; in experiment [1] (first compound 1.581 µM), 0.23; in experiment [1] (first compound 5 µM), 0.414; in experiment [2] (first compound 0.05 µM), 0.476. Further, the relative viability in experiment [2] (first compound 0.1581 µM) turned out to be 0.646; in experiment [2] (first compound 0.5 µM) it was 0.247; in experiment [2] (first compound 1.581 µM) it was 0.248; in experiment [2] (first compound 5 µM), 0.257; in experiment [3] (first compound 0.05 µM), 0.376; in experiment [3] (first compound 0.1581 µM), 0.396. Also, the relative viability in experiment [3] (first compound 0.5 µM) turned out to be 0.229; in experiment [3] (first compound 1.581 µM) it was 0.272; in experiment [3] (first compound 5 µM) it was 0.259; in experiment [4] (0.05 µM), 0.987; in experiment [4] (0.1581 µM), 1.07; in experiment [4] (0.5 µM) it was 0.584. The relative viability in experiment [4] (1.581 µM) amounted to 0.297; in experiment [4] (5 µM), 0.471.
Turning to SK-LU-1, the relative viability in experiment [1] (first compound 0.05 µM) was determined as 0.641; in experiment [1] (first compound 0.1581 µM) it was 0.56; in experiment [1] (first compound 0.5 µM), 0.794; in experiment [1] (first compound 1.581 µM) it was 0.123; in experiment [1] (first compound 5 µM) it was 0.113; in experiment [2] (first compound 0.05 µM) it was 0.306. In addition, the relative viability came out at 0.301 in experiment [2] (first compound 0.1581 µM); 0.285 in experiment [2] (first compound 0.5 µM); 0.225 in experiment [2] (first compound 1.581 µM); 0.206 in experiment [2] (first compound 5 µM); 0.563 in experiment [3] (first compound 0.05 µM); 0.519 in experiment [3] (first compound 0.1581 µM). The relative viability was found to be 0.216 in experiment [3] (first compound 0.5 µM); 0.163 in experiment [3] (first compound 1.581 µM); 0.15 in experiment [3] (first compound 5 µM); 1.05 in experiment [4] (0.05 µM); 0.871 in experiment [4] (0.1581 µM); 0.603 in experiment [4] (0.5 µM). The relative viability in experiment [4] (1.581 µM) was 0.261; in experiment [4] (5 µM), 0.233.
On to SK-MES-1, for which the relative viability was found to be 1.14 in experiment [1] (first compound 0.05 µM); 1.25 in experiment [1] (first compound 0.1581 µM); 0.519 in experiment [1] (first compound 0.5 µM); 0.119 in experiment [1] (first compound 1.581 µM); 0.127 in experiment [1] (first compound 5 µM); 0.586 in experiment [2] (first compound 0.05 µM). For the same cell line, the relative viability in experiment [2] (first compound 0.1581 µM) was 0.631; in experiment [2] (first compound 0.5 µM) it was 0.241; in experiment [2] (first compound 1.581 µM), 0.174; in experiment [2] (first compound 5 µM) it was 0.195; in experiment [3] (first compound 0.05 µM) it was 0.559; in experiment [3] (first compound 0.1581 µM) it was 0.636. Further, the relative viability in experiment [3] (first compound 0.5 µM) was found to be 0.234; in experiment [3] (first compound 1.581 µM), 0.197; in experiment [3] (first compound 5 µM), 0.121; in experiment [4] (0.05 µM) it was 1.02; in experiment [4] (0.1581 µM), 0.931; in experiment [4] (0.5 µM), 0.622. In addition, the relative viability in experiment [4] (1.581 µM) was found to be 0.194; in experiment [4] (5 µM) it was 0.269.
In the case of SW 1573, the relative viability in experiment [1] (first compound 0.05 µM) is 1.06; in experiment [1] (first compound 0.1581 µM) it was 1.09; in experiment [1] (first compound 0.5 µM), 0.466; in experiment [1] (first compound 1.581 µM), 0.115; in experiment [1] (first compound 5 µM), 0.0609; in experiment [2] (first compound 0.05 µM), 0.154. The relative viability was 0.179 in experiment [2] (first compound 0.1581 µM); 0.192 in experiment [2] (first compound 0.5 µM); 0.174 in experiment [2] (first compound 1.581 µM); 0.139 in experiment [2] (first compound 5 µM); 0.232 in experiment [3] (first compound 0.05 µM); 0.413 in experiment [3] (first compound 0.1581 µM). In addition, the relative viability turned out to be 0.143 in experiment [3] (first compound 0.5 µM); 0.103 in experiment [3] (first compound 1.581 µM); 0.0927 in experiment [3] (first compound 5 µM); 1.06 in experiment [4] (0.05 µM); 0.963 in experiment [4] (0.1581 µM); 0.547 in experiment [4] (0.5 µM). Besides, the relative viability in experiment [4] (1.581 µM) is 0.173; in experiment [4] (5 µM) it was 0.325.
Regarding UMC-11, the relative viability stood at 0.312 in experiment [1] (first compound 0.05 µM); 0.269 in experiment [1] (first compound 0.1581 µM); 0.113 in experiment [1] (first compound 0.5 µM); 0.0962 in experiment [1] (first compound 1.581 µM); 0.094 in experiment [1] (first compound 5 µM); 0.194 in experiment [2] (first compound 0.05 µM). Also, the relative viability in experiment [2] (first compound 0.1581 µM) was determined as 0.192; in experiment [2] (first compound 0.5 µM) it was 0.193; in experiment [2] (first compound 1.581 µM), 0.278; in experiment [2] (first compound 5 µM) it was 0.253; in experiment [3] (first compound 0.05 µM), 0.271; in experiment [3] (first compound 0.1581 µM) it was 0.201. For the same cell line, the relative viability worked out at 0.158 in experiment [3] (first compound 0.5 µM); 0.173 in experiment [3] (first compound 1.581 µM); 0.168 in experiment [3] (first compound 5 µM); 0.913 in experiment [4] (0.05 µM); 0.708 in experiment [4] (0.1581 µM); 0.329 in experiment [4] (0.5 µM). Also, the relative viability was found to be 0.182 in experiment [4] (1.581 µM) and 0.145 in experiment [4] (5 µM).
